These results are taken from patent publication US12077503B2, “Substituted cyclic amides and their use as herbicides” (FMC CORPORATION, priority 2015, dated 2024).

Like-named read-outs stand apart in the source and are kept apart here.

For data set [1], the system named is ragweed (common ragweed, Ambrosia elatior). The data set is described as follows: Test A postemergence. Type of data set: in vivo. As to conditions: Ambrosia artemisiifolia, post-emergence, 240 h; for pest or weed control at 125 g/ha: 125 g ai/ha; for pest or weed control at 500 g/ha: 500 g ai/ha, visual injury, approx. 10 d. Summed up: (§1)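 Seeds sprayed preemergence with a directed soil spray, or plants at 2 to 10 cm height and one- to two-leaf stage sprayed postemergence, with test chemicals in a non-phytotoxic solvent mixture containing surfactant, in loam soil–sand blend. Injury rated visually against untreated controls after about 10 d in greenhouse, 0 (no effect) to 100 (complete control).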

For data set [2], the system named is wheat (Triticum aestivum). The data set is described as follows: Test A postemergence. The data set is classed as in vivo. As to conditions: Triticum aestivum, post-emergence, 240 h; for plant injury at 125 g/ha: 125 g ai/ha; for plant injury at 500 g/ha: 500 g ai/ha, visual injury, approx. 10 d. Summed up:
as §1

A further data set concerns corn (Zea mays). The data set is described as follows: Test A postemergence. The data set is classed as in vivo. As to conditions: Zea mays, post-emergence, 240 h; for plant injury at 125 g/ha / Corn plant response rating (crop injury, 0 = no effect, 100 = complete kill) at 125 g/ha: 125 g ai/ha; for plant injury at 125 g/ha / Corn plant response rating (crop injury, 0 = no effect, 100 = complete kill) at 500 g/ha: Postemergence; for plant injury at 125 g/ha: visual rating about 10 d after treatment, read-out: Corn plant response rating (0 to 100 scale); for Corn plant response rating (crop injury, 0 = no effect, 100 = complete kill) at 500 g/ha: 500 g ai/ha, visual injury, approx. 10 d; for Corn plant response rating (crop injury, 0 = no effect, 100 = complete kill) at 500 g/ha / Corn plant response rating (crop injury, 0 = no effect, 100 = complete kill) at 125 g/ha: 0 to 100 scale (0 no effect, 100 complete control); for Corn plant response rating (crop injury, 0 = no effect, 100 = complete kill) at 125 g/ha: postemergence, visual injury after approximately 10 d. The gist of the method:
as §1

The subject of data set [3] is Galium (catchweed bedstraw, Galium aparine). The data set is described as follows: Test A postemergence. As to conditions: Galium, post-emergence, 240 h; for pest or weed control at 125 g/ha: 125 g ai/ha; for pest or weed control at 500 g/ha: 500 g ai/ha, visual injury, approx. 10 d. The data set is classed as in vivo. Summed up: as §1
In data set [4] the test system is blackgrass (Alopecurus myosuroides). The data set is described as follows: Test A postemergence. Type of data set: in vivo. As to conditions: Alopecurus myosuroides, post-emergence, 240 h; for pest or weed control at 125 g/ha: 125 g ai/ha; for pest or weed control at 500 g/ha: 500 g ai/ha, visual injury, approx. 10 d. Summed up:
as §1

The subject of another data set is Kochia (Kochia scoparia). Put plainly: Test A postemergence. The data set is classed as in vivo. Conditions: Bassia scoparia, post-emergence, 240 h; for pest or weed control at 125 g/ha: 125 g ai/ha; for pest or weed control at 500 g/ha: 500 g ai/ha, visual injury, approx. 10 d. The gist of the method: as §1
Where [5] appears, read: Postemergence, visual rating about 10 d after treatment, read-out: Ragweed plant response rating (0 to 100 scale).
[6] abbreviates: Postemergence, 0 to 100 scale (0 no effect, 100 complete control), read-out: Plant response rating, Ragweed.
The mark [7] stands for this setting: Postemergence, visual rating about 10 d after treatment, read-out: Wheat plant response rating (0 to 100 scale).
Setting [8] is: Postemergence, 0 to 100 scale (0 no effect, 100 complete control), read-out: Plant response rating, Wheat.
Setting [9] is: Postemergence, visual rating about 10 d after treatment, read-out: Galium plant response rating (0 to 100 scale).
Where [10] appears, read: Postemergence, 0 to 100 scale (0 no effect, 100 complete control), read-out: Plant response rating, Galium.
Setting [11] is: Postemergence, visual rating about 10 d after treatment, read-out: Blackgrass plant response rating (0 to 100 scale).
The mark [12] stands for this setting: Postemergence, 0 to 100 scale (0 no effect, 100 complete control), read-out: Plant response rating, Blackgrass.
[13] abbreviates: postemergence, visual injury after approximately 10 d, 0 to 100 scale (0 no effect, 100 complete control), read-out: Plant response rating, Ragweed.
The mark [14] stands for this setting: postemergence, visual injury after approximately 10 d, 0 to 100 scale (0 no effect, 100 complete control), read-out: Plant response rating, Wheat.
Where [15] appears, read: postemergence, visual injury after approximately 10 d, 0 to 100 scale (0 no effect, 100 complete control), read-out: Plant response rating, Galium.
[16] abbreviates: postemergence, visual injury after approximately 10 d, 0 to 100 scale (0 no effect, 100 complete control), read-out: Plant response rating, Blackgrass.
Setting [17] is: postemergence, visual injury after approximately 10 d, 0 to 100 scale (0 no effect, 100 complete control), read-out: Plant response rating, Kochia.
[18] abbreviates: Postemergence, visual rating about 10 d after treatment, read-out: Kochia plant response rating (0 to 100 scale).
Setting [19] is: Postemergence, 0 to 100 scale (0 no effect, 100 complete control), read-out: Plant response rating, Kochia.

Regarding `Cc1ccc([C@H]2CN(C)C(=O)[C@@H]2C(=O)Nc2ccc(F)c(F)c2F)cc1` [Compound 1378], the melting point is 101.6 to 102.3 °C. Moreover, the pest or weed control at 125 g/ha in data set [1] (setting [5]) is 40%. Further, the pest or weed control at 500 g/ha in data set [1] (setting [6]) came out at 70%. The plant injury at 125 g/ha in data set [2] (setting [7]) was 60%. Moreover, in data set [2] (setting [8]), the plant injury at 500 g/ha was found to be 70%. Also, in the data set on corn (Zea mays), the plant injury at 125 g/ha amounted to 80% and the Corn plant response rating (crop injury, 0 = no effect, 100 = complete kill) at 500 g/ha worked out at 80%. Also, the pest or weed control at 125 g/ha in data set [3] (setting [9]) was 60%. Further, the pest or weed control at 500 g/ha in data set [3] (setting [10]) came out at 70%. Also, the pest or weed control at 125 g/ha in data set [4] (setting [11]) came out at 30%. In data set [4] (setting [12]), the pest or weed control at 500 g/ha came out at 40%.
Compound `CN1C[C@H](c2ccc(C(F)(F)F)cc2)[C@@H](C(=O)Nc2ccccc2C(F)(F)F)C1=O` [Compound 726] came in with a melting point of 108 to 111 °C. In addition, in data set [1] (setting [13]), the pest or weed control at 125 g/ha amounted to 30%. Moreover, the plant injury at 125 g/ha in data set [2] (setting [14]) is 30%. Moreover, the Corn plant response rating (crop injury, 0 = no effect, 100 = complete kill) at 125 g/ha in the data set with corn (Zea mays) came out at 60%. The pest or weed control at 125 g/ha in data set [3] (setting [15]) was found to be 50%. Further, the pest or weed control at 125 g/ha in data set [4] (setting [16]) is 50%. Further, the pest or weed control at 125 g/ha in the data set on Kochia (Kochia scoparia) (setting [17]) was found to be 30%.
For `CN1C[C@H](c2cc(F)cc(F)c2)[C@@H](C(=O)Nc2ncccc2F)C1=O` [Compound 783], the pest or weed control at 125 g/ha (in data set [1] (setting [13]); in data set [3] (setting [15]); in data set [4] (setting [16]); in the data set on Kochia (Kochia scoparia) (setting [17])) was 0% each time. The plant injury at 125 g/ha in data set [2] (setting [14]) turned out to be 0%. In addition, the Corn plant response rating (crop injury, 0 = no effect, 100 = complete kill) at 125 g/ha with corn (Zea mays) amounted to 0%.
`CN1CC(c2cccc(OCC=C(Cl)Cl)c2)C(C(=O)Nc2cccc(F)c2F)C1=O` (centres unmarked) [Compound 1303] returned a melting point of 124 to 127 °C. Further, in data set [1] (setting [5]), the pest or weed control at 125 g/ha was 0%. In addition, in data set [1] (setting [6]), the pest or weed control at 500 g/ha is 0%. Besides, the plant injury at 125 g/ha in data set [2] (setting [7]) turned out to be 0%. The plant injury at 500 g/ha in data set [2] (setting [8]) was determined as 0%. Besides, in the data set on corn (Zea mays), the plant injury at 125 g/ha came out at 0% and the Corn plant response rating (crop injury, 0 = no effect, 100 = complete kill) at 500 g/ha came out at 0%. In addition, the pest or weed control at 125 g/ha in data set [3] (setting [9]) was determined as 0%. The pest or weed control at 500 g/ha in data set [3] (setting [10]) is 0%. For the same compound, the pest or weed control at 125 g/ha in data set [4] (setting [11]) was determined as 0%. Further, in data set [4] (setting [12]), the pest or weed control at 500 g/ha was determined as 0%.
On to `CN1C[C@H](c2cccc(C(C)(F)F)c2)[C@@H](C(=O)Nc2ccccc2F)C1=O` [Compound 1317], for which the pest or weed control at 125 g/ha in data set [1] (setting [5]) was found to be 0%; in data set [3] (setting [9]), 60%; in data set [4] (setting [11]) it was 80%; in the data set on Kochia (Kochia scoparia) (setting [18]), 20%. The pest or weed control at 500 g/ha amounted to 20% in data set [1] (setting [6]), 60% in data set [3] (setting [10]), 80% in data set [4] (setting [12]) and 30% in the data set on Kochia (Kochia scoparia) (setting [19]). For the same compound, the plant injury at 125 g/ha is 60% in data set [2] (setting [7]) and 80% in the data set on corn (Zea mays). Moreover, in data set [2] (setting [8]), the plant injury at 500 g/ha was found to be 60%. Also, the Corn plant response rating (crop injury, 0 = no effect, 100 = complete kill) at 500 g/ha in the data set with corn (Zea mays) came to 80%.
For the compound `CC(F)(F)c1cccc([C@H]2CNC(=O)[C@@H]2C(=O)Nc2ccccc2S(C)(=O)=O)c1` [Compound 780], the pest or weed control at 125 g/ha in data set [1] (setting [13]) was 0%; in data set [3] (setting [15]), 50%; in data set [4] (setting [16]) it was 50%; in the data set on Kochia (Kochia scoparia) (setting [17]), 30%. The plant injury at 125 g/ha in data set [2] (setting [14]) came out at 30%. The same compound yielded a Corn plant response rating (crop injury, 0 = no effect, 100 = complete kill) at 125 g/ha in the data set on corn (Zea mays) of 40%.
Turning to `CS(=O)(=O)c1ccccc1NC(=O)[C@H]1C(=O)NC[C@@H]1c1ccc(OC(F)F)cc1` [Compound 787], the pest or weed control at 125 g/ha is 50% in data set [1] (setting [13]), 60% in data set [3] (setting [15]), 0% in data set [4] (setting [16]) and 60% in the data set on Kochia (Kochia scoparia) (setting [17]). The plant injury at 125 g/ha in data set [2] (setting [14]) was determined as 0%. The compound further gave a Corn plant response rating (crop injury, 0 = no effect, 100 = complete kill) at 125 g/ha in the data set on corn (Zea mays) of 0%.
As for `CN1C[C@H](c2cc(F)cc(F)c2)[C@@H](C(=O)Nc2ccccc2S(C)(=O)=O)C1=O` [Compound 739], the pest or weed control at 125 g/ha in data set [1] (setting [13]) worked out at 30%; in data set [3] (setting [15]) it was 50%; in data set [4] (setting [16]), 0%; in the data set on Kochia (Kochia scoparia) (setting [17]), 30%. Further, in data set [2] (setting [14]), the plant injury at 125 g/ha is 0%. In the data set with corn (Zea mays), the Corn plant response rating (crop injury, 0 = no effect, 100 = complete kill) at 125 g/ha worked out at 20%.
As to `C=CN1C[C@H](c2ccc(C)c(F)c2)[C@@H](C(=O)Nc2cccc(F)c2F)C1=O` (racemic) [Compound 1332], the pest or weed control at 125 g/ha (in data set [1] (setting [5]); in data set [3] (setting [9]); in data set [4] (setting [11]); with Kochia (Kochia scoparia) (setting [18])) was 0% each time. For the same compound, the pest or weed control at 500 g/ha was 20% in data set [1] (setting [6]), 20% in data set [3] (setting [10]), 30% in data set [4] (setting [12]) and 0% in the data set with Kochia (Kochia scoparia) (setting [19]). Moreover, the plant injury at 125 g/ha (in data set [2] (setting [7]); with corn (Zea mays)) was 0% throughout. In data set [2] (setting [8]), the plant injury at 500 g/ha was 20%. Also, the Corn plant response rating (crop injury, 0 = no effect, 100 = complete kill) at 500 g/ha with corn (Zea mays) was found to be 0%.
For `CN1C[C@H](c2cccc([N+](=O)[O-])c2)[C@@H](C(=O)Nc2cccc(F)c2F)C1=O` (racemic) [Compound 776], the pest or weed control at 125 g/ha was 0% in data set [1] (setting [13]), 20% in data set [3] (setting [15]), 30% in data set [4] (setting [16]) and 20% in the data set with Kochia (Kochia scoparia) (setting [17]). The plant injury at 125 g/ha in data set [2] (setting [14]) came to 30%. In the data set on corn (Zea mays), this compound displayed a Corn plant response rating (crop injury, 0 = no effect, 100 = complete kill) at 125 g/ha of 30%.
`CN1C[C@H](c2ccc3c(c2)CCC3)[C@@H](C(=O)Nc2cccc(F)c2F)C1=O` [Compound 743]: the pest or weed control at 125 g/ha turned out to be 0% in data set [1] (setting [13]), 50% in data set [3] (setting [15]), 30% in data set [4] (setting [16]) and 30% with Kochia (Kochia scoparia) (setting [17]). For the same compound, the plant injury at 125 g/ha in data set [2] (setting [14]) turned out to be 50%. Further, the Corn plant response rating (crop injury, 0 = no effect, 100 = complete kill) at 125 g/ha with corn (Zea mays) is 60%.
